Legend:
Format in all cases: functional
UACC-62 = assay: Growth inhibition of human UACC62 cells after 48 hrs by SRB staining method; settings: UACC-62, 48 h
HL-60 = assay: Growth inhibition of human HL60 cells after 48 hrs by SRB staining method; settings: HL-60, 48 h
SNB-19 = assay: Growth inhibition of human SNB19 cells after 48 hrs by SRB staining method; settings: SNB-19, 48 h
SK-OV-3 = assay: Growth inhibition of human SKOV3 cells after 48 hrs by SRB staining method; settings: SK-OV-3, 48 h
SK-MEL-5 = assay: Growth inhibition of human SK-MEL-5 cells after 48 hrs by SRB staining method; settings: SK-MEL-5, 48 h
MDA-MB-435 = assay: Growth inhibition of human MDA-MB-435 cells after 48 hrs by SRB staining method; settings: MDA-MB-435, 48 h
T47D = assay: Growth inhibition of human T47D cells after 48 hrs by SRB staining method
LOX IMVI = assay: Growth inhibition of human LOX IMVI cells after 48 hrs by SRB staining method
786-0 = assay: Growth inhibition of human 786-0 cells after 48 hrs by SRB staining method; settings: 786-0, 48 h
UO-31 = assay: Growth inhibition of human UO31 cells after 48 hrs by SRB staining method; settings: UO-31, 48 h
SF-295 = assay: Growth inhibition of human SF295 cells after 48 hrs by SRB staining method; settings: SF-295, 48 h
OVCAR-4 = assay: Growth inhibition of human OVCAR4 cells after 48 hrs by SRB staining method; settings: OVCAR-4, 48 h
[1] = Growth inhibition of human HS 578T cells after 48 hrs by SRB staining method
SN12C = assay: Growth inhibition of human SN12C cells after 48 hrs by SRB staining method
M14 = assay: Growth inhibition of human M14 cells after 48 hrs by SRB staining method; settings: M14, 48 h
PC-3 = assay: Growth inhibition of human PC3 cells after 48 hrs by SRB staining method; settings: PC-3, 48 h
MCF7 = assay: Growth inhibition of human MCF7 cells after 48 hrs by SRB staining method; settings: MCF7, 48 h
NCI-H522 = assay: Growth inhibition of human NCI-H522 cells after 48 hrs by SRB staining method; settings: NCI-H522, 48 h
HOP-62 = assay: Growth inhibition of human HOP62 cells after 48 hrs by SRB staining method; settings: HOP-62, 48 h
IGROV-1 = assay: Growth inhibition of human IGROV1 cells after 48 hrs by SRB staining method; settings: IGROV-1, 48 h
NCI-H460 = assay: Growth inhibition of human NCI-H460 cells after 48 hrs by SRB staining method; settings: NCI-H460, 48 h
NCI-H23 = assay: Growth inhibition of human NCI-H23 cells after 48 hrs by SRB staining method; settings: NCI-H23, 48 h
Malme-3M = assay: Growth inhibition of human MALME-3M cells after 48 hrs by SRB staining method
RXF 393 = assay: Growth inhibition of human RXF393 cells after 48 hrs by SRB staining method; settings: RXF 393, 48 h
HCT-15 = assay: Growth inhibition of human HCT15 cells after 48 hrs by SRB staining method; settings: HCT-15, 48 h
A498 = assay: Growth inhibition of human A498 cells after 48 hrs by SRB staining method; settings: A498, 48 h
KM12 = assay: Growth inhibition of human KM12 cells after 48 hrs by SRB staining method; settings: KM12, 48 h
DU-145 = assay: Growth inhibition of human DU145 cells after 48 hrs by SRB staining method; settings: DU-145, 48 h
NCI/ADR-RES = assay: Growth inhibition of human NCI/ADR-RES cells after 48 hrs by SRB staining method
NCI-H226 = assay: Growth inhibition of human NCI-H226 cells after 48 hrs by SRB staining method; settings: NCI-H226, 48 h
SK-MEL-2 = assay: Growth inhibition of human SK-MEL-2 cells after 48 hrs by SRB staining method; settings: SK-MEL-2, 48 h
UACC-257 = assay: Growth inhibition of human UACC257 cells after 48 hrs by SRB staining method; settings: UACC-257, 48 h
[2] = read-out: pLC50 (the source's name) (converted)

Nc1cc(N)c2nc(-c3ccccc3)c(Nc3ccc(Cl)c(Cl)c3)nc2c1
GI50 (UACC-62): 13.2 µM
LC50 (UACC-62): 67.6 µM
TGI (UACC-62; read-out: pTGI (converted)): 30.2 µM
GI50 (HL-60): 2570 nM
CC50 (HL-60; [2]): > 100 µM
TGI (HL-60; read-out: pTGI (converted)): 72.4 µM
GI50 (SNB-19): 12.9 µM
LC50 (SNB-19): 70.8 µM
TGI (SNB-19; read-out: pTGI (converted)): 30.2 µM
GI50 (SK-OV-3): 13.8 µM
CC50 (SK-OV-3; [2]): 70.8 µM
TGI (SK-OV-3; read-out: pTGI (converted)): 31.6 µM
GI50 (SK-MEL-5): 11 µM
LC50 (SK-MEL-5): 58.9 µM
TGI (SK-MEL-5; read-out: pTGI (converted)): 25.7 µM
GI50 (MDA-MB-435): 2140 nM
CC50 (MDA-MB-435; [2]): 9.77 µM
TGI (MDA-MB-435; read-out: pTGI (converted)): 45.7 µM
GI50 (T47D): 11.5 µM
CC50 (T47D; [2]): 83.2 µM
TGI (T47D; read-out: pTGI (converted)): 30.9 µM
GI50 (LOX IMVI): 4.37 µM
LC50 (LOX IMVI): > 100 µM
TGI (LOX IMVI; read-out: pTGI (converted)): > 100 µM
GI50 (786-0): 14.8 µM
CC50 (786-0; [2]): 93.3 µM
TGI (786-0; read-out: pTGI (converted)): 37.2 µM
GI50 (UO-31): 11.2 µM
CC50 (UO-31; [2]): > 100 µM
TGI (UO-31; read-out: pTGI (converted)): 36.3 µM
GI50 (SF-295): 12.3 µM
LC50 (SF-295): 63.1 µM
TGI (SF-295; read-out: pTGI (converted)): 28.2 µM
GI50 (OVCAR-4): 11.2 µM
LC50 (OVCAR-4): > 100 µM
TGI (OVCAR-4; read-out: pTGI (converted)): 47.9 µM
GI50 [1]: 19.1 µM
CC50 [1, 2]: > 100 µM
TGI ([1]; read-out: pTGI (converted)): 51.3 µM
GI50 (SN12C): 12.6 µM
CC50 (SN12C; [2]): 79.4 µM
TGI (SN12C; read-out: pTGI (converted)): 31.6 µM
GI50 (M14): 14.8 µM
LC50 (M14): > 100 µM
TGI (M14; read-out: pTGI (converted)): 60.3 µM
GI50 (PC-3): 3.09 µM
CC50 (PC-3; [2]): 89.1 µM
TGI (PC-3; read-out: pTGI (converted)): 15.1 µM
GI50 (MCF7): 5.01 µM
CC50 (MCF7; [2]): 75.9 µM
TGI (MCF7; read-out: pTGI (converted)): 20.9 µM
GI50 (NCI-H522): 5.25 µM
LC50 (NCI-H522): 69.2 µM
TGI (NCI-H522; read-out: pTGI (converted)): 21.9 µM
GI50 (HOP-62): 17.4 µM
LC50 (HOP-62): 81.3 µM
TGI (HOP-62; read-out: pTGI (converted)): 38 µM
GI50 (IGROV-1): 4.9 µM
LC50 (IGROV-1): 66.1 µM
TGI (IGROV-1; read-out: pTGI (converted)): 20.9 µM
GI50 (NCI-H460): 1580 nM
LC50 (concentration killing 50% of cells) (NCI-H460): 56.2 µM
TGI (NCI-H460; read-out: pTGI (converted)): 22.9 µM
GI50 (NCI-H23): 19.1 µM
LC50 (NCI-H23): > 100 µM
TGI (NCI-H23; read-out: pTGI (converted)): 55 µM
GI50 (Malme-3M): 10.2 µM
LC50 (Malme-3M): 57.5 µM
TGI (Malme-3M; read-out: pTGI (converted)): 24.5 µM
GI50 (RXF 393): 6.17 µM
CC50 (RXF 393; [2]): > 100 µM
TGI (RXF 393; read-out: pTGI (converted)): 30.9 µM
GI50 (HCT-15): 21.4 µM
LC50 (HCT-15): > 100 µM
TGI (HCT-15; read-out: pTGI (converted)): > 100 µM
GI50 (A498): 12 µM
CC50 (A498; [2]): 57.5 µM
TGI (A498; read-out: pTGI (converted)): 26.3 µM
GI50 (KM12): 5.89 µM
LC50 (KM12): 87.1 µM
TGI (KM12; read-out: pTGI (converted)): 24.5 µM
GI50 (DU-145): 16.6 µM
CC50 (DU-145; [2]): 63.1 µM
TGI (DU-145; read-out: pTGI (converted)): 32.4 µM
GI50 (NCI/ADR-RES): 15.5 µM
CC50 (NCI/ADR-RES; [2]): > 100 µM
TGI (NCI/ADR-RES; read-out: pTGI (converted)): 55 µM
GI50 (NCI-H226): 17.4 µM
LC50 (NCI-H226): 81.3 µM
TGI (NCI-H226; read-out: pTGI (converted)): 38 µM
GI50 (SK-MEL-2): 2340 nM
LC50 (SK-MEL-2): 69.2 µM
TGI (SK-MEL-2; read-out: pTGI (converted)): 19.1 µM
GI50 (UACC-257): 11.5 µM
LC50 (UACC-257): 69.2 µM
TGI (UACC-257; read-out: pTGI (converted)): 28.2 µM

Reference: ChEMBL document CHEMBL1149774, “Synthesis of N-(5,7-diamino-3-phenyl-quinoxalin-2-yl)-3,4,5-substituted anilines and N-[4[(5,7-diamino-3-phenylquinoxalin-2-yl)amino]benzoyl]-l-glutamic acid diethyl ester: evaluation of in vitro anti-cancer and anti-folate activities” (Eur J Med Chem, 2008)
